Laboratory results as given in patent EP1589016A1, “Thio-substituted tricyclic and bicyclic aromatic methanesulfinyl derivatives” (CEPHALON FRANCE, priority 2004, dated 2005).

Test system: Rats
Test: Evaluation of Wake Promoting Activity in Rats (EEG/EMG sleep/wake scoring)
Format: in vivo, Wistar rats
Details: i.p. route, 100 mg/kg; for Mean AUC 0-3h, Test compound: n = 4 rats per test compound, group mean, compared with vehicle group (8 rats); for wakefulness compared to the vehicle-treated control groups: rats, p< 0.05 versus vehicle
Protocol: The methodology utilized for evaluating wake promoting activity of test compounds is based on that described by Edgar and Seidel, Journal of Pharmacology and Experimental Therapeutics, 283:757-769, 1997, and incorporated herein in its entirety by reference.
Animal Surgery. Adult, male Wistar rats (275-320g from Charles River Laboratories, Wilmington, MA) were anesthetized (Nembutal, 45 mg/kg, ip.) and surgically prepared with implants for recording of chronic EEG (encephalographic) and EMG (electromyographic) recording. The EEG implants were made from commercially available components (Plastics One, Roanoke, VA). EEG signals were recorded from stainless steel screw electrodes: 2 frontal (+3.0 mm AP from bregma, ±2.0 mm ML), and 2 occipital (-4.0 mm AP from bregma, ±2.0 mm ML). Two Teflon-coated stainless steel wires were positioned under the nuchal trapezoid muscles for EMG recording. All electrode leads were inserted into a connector pedestal and the pedestal affixed to the skull by application dental acrylic. Antibiotic was administered post surgically and antibiotic cream was applied to the wound edges to prevent infection. At least one week elapsed between surgery and recording.
Recording environment. Postsurgically, rats were housed in pairs in an isolated room. Food and water were available ad libitum, ambient temperature was 21°C, and humidity was 55%. At least 24 hrs prior to recording, they were placed in Nalgene containers (31 x 31 x 31 cm) with a wire-grid top, and entry to the room was prohibited during the day of recording except for dosing. The containers were placed on a rack with two shelves, 4 containers per shelf. Fluorescent overhead room lights were set to a 24 hr. light/dark cycle (on at 7 AM, off at 7 PM). Light levels inside the containers were 38 and 25 lux for the top and bottom shelves respectively. Background white-noise (68db inside the containers) was present in the room to mask ambient sounds.
Data acquisition. EEG and EMG signals were led via cables to a commutator (Plastics One) and then to pre-amplifiers (model 1700, A-M Systems, Carlsborg, WA). EEG and EMG signals were amplified (10K and 1K respectively) and bandpass filtered between 0.3 and 500 Hz for EEG and between 10 and 500 Hz for EMG. These signals were digitized at 128 samples per second using ICELUS sleep research software (M. Opp, U. Texas; see Opp, Physiology and Behavior 63:67-74, 1998, and Imeri, Mancia, and Opp, Neuroscience 92:745-749, 1999, incorporated by reference herein in their entirety) running under Labview 5.1 software and data acquisition hardware (PCI-MIO-16E-4; National Instruments, Austin, TX). On the day of dosing, data was recorded for 6 to 10 hours beginning at 11 AM.
Drug administration and study design. Compounds were evaluated on groups of from 4 to 8 rats carried out over one or two separate test sessions. Each animal was tested with a different compound or vehicle for up to 10 weeks with at least 7 days between successive tests. A vehicle group was included in all experiments, and each animal received vehicle every 4th test. Test compounds were suspended in sterile 0.25% methylcellulose (pH=6.2; Upjohn Co., Kalamazoo, MI) at […]. Although compounds can be administered at dosages greater than 100 mg/kg and are expected to be active under the selection criteria of data analysis, unless otherwise noted, compounds were administered at a single dose of 100 mg/kg. Dosing was carried out at noon, while the rats were predominantly asleep. Each rat was lifted out of its container, given an intraperitoneal injection in a volume of 5 mL/kg, and replaced. Dosing required approximately 30 sec per rat.
Sleep / wake scoring. Sleep and wake activity were determined manually using ICELUS software. […]

## O=C(C[S+]([O-])Cc1cccc2c1oc1ccccc12)N1CCNCC1 (stereo not drawn) [Example 99]
  Mean AUC 0-3h, Test compound: 129.1 % of waiking time x hr
  wakefulness compared to the vehicle-treated control groups: significantly greated wakefulness

## O=C(C[S+]([O-])Cc1cccc2c1-c1ccccc1C2)N1CCNCC1 (stereo not drawn) [Example 130]
  Mean AUC 0-3h, Test compound: 149.2 % of waiking time x hr
  wakefulness compared to the vehicle-treated control groups: significantly greated wakefulness

## CC(C)(C)OC(=O)N1CCN(C(=O)CSCc2ccc3oc4ccc(F)cc4c3c2)CC1 [Example 26, 4-[2-(8-fluorodibenzofuran-2-yl-methylsulfanyl)acetyl]-piperazine-1-carboxylic acid tret-butyl ester]
  Mean AUC 0-3h, Test compound: 132.0 % of waiking time x hr
  wakefulness compared to the vehicle-treated control groups: significantly greated wakefulness
